These results are taken from paper PMC8426418 (Therapeutic drug monitoring, 2021).

A short description of series [1]: Steady-state plasma concentrations of BUP and metabolites in pregnancy. The following applies: for Css (dose-normalized steady-state plasma concentration) / metabolite/BUP steady-state concentration ratio: geometric mean [range]; for steady-state concentration relative to BUP: pregnant women and postpartum.
The conditions of series [2]: for change in formation clearance (CLf) during pregnancy compared to postpartum: T2 or T3 vs matched postpartum; for CLR (renal clearance) / CL renal: geometric mean [range]; for CL renal: female, human, urine and plasma, oral, CLR (renal clearance).
For series [3] the following is noted: cited from earlier work.
Series [4] is classed as in vivo, human. The settings on record: at delivery, three subjects; for maternal plasma steady-state concentration / umbilical cord venous plasma steady-state concentration: mean±SE; for fetal to maternal ratio (umbilical cord venous plasma to maternal plasma concentration): steady-state.
[5] abbreviates: postpartum (PP) matched to T2, n=5.
Where [6] appears, read: postpartum (PP) matched to T3, n=5.

Several values for one entry are separate records, joined by “and”; a condition that tells them apart may be missing. Equal entries are not always repeated. Where two headings read alike, the source gives them in different places.

For `C[C@H]1NC(C)(C)CO[C@]1(O)c1cccc(Cl)c1` [OH-BUP, hydroxybupropion], the “Css (dose-normalized steady-state plasma concentration)” value in series [1] (setting [5]) was 16.3 [4.9–39.6] μM/g; in series [1] (setting [6]), 13.3 [4.9–39.6] μM/g; in series [1] (second trimester (T2), n=5) it was 15.1 [10.6–18.7] μM/g; in series [1] (third trimester (T3), n=5), 16.5 [6.3–30.9] μM/g. Also, the “steady-state concentration relative to BUP” value in series [1] (this study) was 28–33 fold and 30 fold. Besides, the “change in formation clearance (CLf) during pregnancy compared to postpartum” value (“change in formation clearance” for short) in series [2] was “no changes”. Also, the “CLR (renal clearance)” value in series [2] (setting [5]) is 0.10 [0.02–0.54] L/h; in series [2] (setting [6]), 0.10 [0.03–0.46] L/h; in series [2] (second trimester (T2), n=5), 0.20 [0.11–0.36] L/h; in series [2] (third trimester (T3), n=5), 0.08 [0.04–0.12] L/h. In series [3], the “plasma concentration exceeding BUP concentration” value was 3–30 fold. Further, the “steady-state concentration relative to racemic BUP” value in series [3] (non-pregnant subjects) is 28 fold.

As for `C[C@@H]1NC(C)(C)CO[C@@]1(O)c1cccc(Cl)c1` [S,S-OH-BUP], the “Css (dose-normalized steady-state plasma concentration)” value in series [1] (setting [5]) was 0.78 [0.10–2.2] μM/g; in series [1] (setting [6]) it was 0.64 [0.10–2.2] μM/g; in series [1] (second trimester (T2), n=5), 0.73 [0.20–1.4] μM/g; in series [1] (third trimester (T3), n=5), 0.83 [0.36–1.7] μM/g. Further, the “metabolite/BUP steady-state concentration ratio” value is 1.5 [0.7–5.9] in series [1] (setting [5]); 1.6 [0.8–5.9] in series [1] (setting [6]); 2.2 [1.0–6.0] in series [1] (second trimester (T2), n=5); 1.9 [0.9–8.7] in series [1] (third trimester (T3), n=5). In addition, the “CLR (renal clearance)” value was 0.35 [0.09–3.5] L/h in series [2] (setting [5]); 0.47 [0.09–3.5] L/h in series [2] (setting [6]); 0.93 [0.31–3.4] L/h in series [2] (second trimester (T2), n=5); 0.40 [0.24–0.72] L/h in series [2] (third trimester (T3), n=5). Besides, the “maternal plasma steady-state concentration” value in series [4] turned out to be 0.8 ± 0.6 µM/g. The “umbilical cord venous plasma steady-state concentration” value in series [4] stood at 0.4 ± 0.2 µM/g.

Turning to `CC(NC(C)(C)C)C(=O)c1ccc(O)c(Cl)c1` (stereo not drawn) [4’OH-BUP, 4’-hydroxy-bupropion], the “change in formation clearance” value in series [2] is given as “no changes”.

Regarding `C[C@@H](NC(C)(C)C)C(=O)c1cccc(Cl)c1` [R-BUP, R-bupropion, reference compound], in series [3], the “circulating concentration of R-BUP relative to S-BUP” value is reported as 3- to 6 fold.

For `C[C@H]1NC(C)(C)CO[C@]1(O)c1cccc(Cl)c1` [R,R-OH-BUP], the “Css (dose-normalized steady-state plasma concentration)” value is 15.9 [5.5–35.7] μM/g in series [1] (setting [5]); 14.0 [5.5–35.7] μM/g in series [1] (setting [6]); 15.8 [10.0–22.2] μM/g in series [1] (second trimester (T2), n=5); 13.7 [5.9–21.2] μM/g in series [1] (third trimester (T3), n=5). The “metabolite/BUP steady-state concentration ratio” value is 32.5 [15.8–77.2] in series [1] (setting [5]); 35.6 [15.2–77.2] in series [1] (setting [6]); 43.8 [16.4–178.7] in series [1] (second trimester (T2), n=5); 33.7 [13.5–99.1] in series [1] (third trimester (T3), n=5). In series [1] (this study), the “R,R-OH-BUP steady-state concentration relative to S,S-OH-BUP” value is given as 14–20 fold. Further, the “CLR (renal clearance)” value in series [2] (setting [5]) is 0.08 [0.02–0.45] L/h; in series [2] (setting [6]), 0.09 [0.03–0.35] L/h; in series [2] (second trimester (T2), n=5), 0.15 [0.07–0.32] L/h; in series [2] (third trimester (T3), n=5), 0.07 [0.05–0.09] L/h. In addition, the “fetal to maternal ratio (umbilical cord venous plasma to maternal plasma concentration)” value in series [4] came out at 0.4±0.1. Also, the “maternal plasma steady-state concentration” value in series [4] turned out to be 19.1 ± 12.0 µM/g. The “umbilical cord venous plasma steady-state concentration” value in series [4] was determined as 6.4 ± 3.1 µM/g. The “R,R-OH-BUP exposure relative to S,S-OH-BUP” value in series [3] is “up to 65 fold”. The “R,R-OH-BUP concentration relative to S,S-OH-BUP” value in series [3] (non-pregnant subjects) was 40–65 fold.

As for `CC(NC(C)(C)C)C(O)c1cccc(Cl)c1` (stereo not drawn) [Erythro, erythrohydrobupropion], the “Css (dose-normalized steady-state plasma concentration)” value was 0.67 [0.25–1.7] μM/g in series [1] (setting [5]); 0.80 [0.25–1.7] μM/g in series [1] (setting [6]); 0.49 [0.33–0.78] μM/g in series [1] (second trimester (T2), n=5); 0.63 [0.52–0.79] μM/g in series [1] (third trimester (T3), n=5). Further, the “metabolite/BUP steady-state concentration ratio” value was 1.3 [0.5–3.2] in series [1] (setting [5]); 1.9 [1.2–3.2] in series [1] (setting [6]); 1.5 [0.4–4.2] in series [1] (second trimester (T2), n=5); 1.4 [0.6–2.7] in series [1] (third trimester (T3), n=5). In addition, the “steady-state concentration relative to BUP” value in series [1] (this study) was “similar”. Moreover, in series [2], the “change in formation clearance” value is recorded as “no changes”. Besides, the “CLR (renal clearance)” value is 1.6 [0.36–9.7] L/h in series [2] (setting [5]); 1.9 [0.36–9.7] L/h in series [2] (setting [6]); 2.1 [0.91–4.4] L/h in series [2] (second trimester (T2), n=5); 1.2 [0.74–1.7] L/h in series [2] (third trimester (T3), n=5). Moreover, in series [4], the “maternal plasma steady-state concentration” value came to 0.5 ± 0.5 µM/g. Also, in series [4], the “umbilical cord venous plasma steady-state concentration” value worked out at 0.3 ± 0.3 µM/g. The “plasma concentration exceeding BUP concentration” value in series [3] was 3–30 fold.

For the compound `CC(NC(C)(C)C)C(=O)c1cccc(Cl)c1` (stereo not drawn) [BUP, Bupropion, reference compound], the “Css (dose-normalized steady-state plasma concentration)” value in series [1] (setting [5]) was 0.53 [0.11–1.3] μM/g; in series [1] (setting [6]), 0.41 [0.11–1.1] μM/g; in series [1] (second trimester (T2), n=5), 0.33 [0.08–1.2] μM/g; in series [1] (third trimester (T3), n=5), 0.44 [0.19–1.2] μM/g. Also, the CL renal in series [2] (second trimester (T2), n=5) is 40 mL/min; in series [2] (third trimester (T3), n=5) it was 30 mL/min. Further, in series [4], the “maternal plasma steady-state concentration” value was determined as 0.5 ± 0.2 µM/g. Moreover, the “umbilical cord venous plasma steady-state concentration” value in series [4] was determined as 0.2 ± 0.1 µM/g.

Consider `C[C@H](NC(C)(C)C)[C@@H](O)c1cccc(Cl)c1` [Threo, threohydrobupropion], for which the “Css (dose-normalized steady-state plasma concentration)” value is 4.1 [1.2–10.8] μM/g in series [1] (setting [5]); 4.7 [1.2–10.8] μM/g in series [1] (setting [6]); 3.4 [1.8–6.7] μM/g in series [1] (second trimester (T2), n=5); 4.9 [3.1–10.7] μM/g in series [1] (third trimester (T3), n=5). Further, the “metabolite/BUP steady-state concentration ratio” value was 7.8 [3.5–17.6] in series [1] (setting [5]); 11.5 [9.7–17.6] in series [1] (setting [6]); 10.3 [4.8–23.1] in series [1] (second trimester (T2), n=5); 11.2 [5.6–16.6] in series [1] (third trimester (T3), n=5). Moreover, the “steady-state concentration relative to BUP” value in series [1] (this study) was 8–10 fold and 10 fold. The “change in formation clearance” value in series [2] is reported as “no changes”. In addition, the “CLR (renal clearance)” value in series [2] (setting [5]) was 2.4 [0.55–17.6] L/h; in series [2] (setting [6]), 2.9 [0.59–17.6] L/h; in series [2] (second trimester (T2), n=5) it was 3.9 [1.7–8.6] L/h; in series [2] (third trimester (T3), n=5), 2.0 [1.1–2.8] L/h. The “fetal to maternal ratio (umbilical cord venous plasma to maternal plasma concentration)” value in series [4] was determined as 0.7±0.1. Moreover, in series [4], the “maternal plasma steady-state concentration” value was determined as 4.9 ± 5.3 µM/g. In addition, the “umbilical cord venous plasma steady-state concentration” value in series [4] is 3.7 ± 4.3 µM/g. Also, the “plasma concentration exceeding BUP concentration” value in series [3] is recorded as 3–30 fold. For the same compound, the “steady-state concentration relative to racemic BUP” value in series [3] (non-pregnant subjects) was 5 fold.
